Laboratory results from patent publication US9765075B2, “Substituted bridged urea analogs as sirtuin modulators” (GLAXOSMITHKLINE LLC, priority 2013, dated 2017).

Target: T1, SIRT1 (Homo sapiens, UniProt Q96EB6)
T1 sequence (Q96EB6 1-747): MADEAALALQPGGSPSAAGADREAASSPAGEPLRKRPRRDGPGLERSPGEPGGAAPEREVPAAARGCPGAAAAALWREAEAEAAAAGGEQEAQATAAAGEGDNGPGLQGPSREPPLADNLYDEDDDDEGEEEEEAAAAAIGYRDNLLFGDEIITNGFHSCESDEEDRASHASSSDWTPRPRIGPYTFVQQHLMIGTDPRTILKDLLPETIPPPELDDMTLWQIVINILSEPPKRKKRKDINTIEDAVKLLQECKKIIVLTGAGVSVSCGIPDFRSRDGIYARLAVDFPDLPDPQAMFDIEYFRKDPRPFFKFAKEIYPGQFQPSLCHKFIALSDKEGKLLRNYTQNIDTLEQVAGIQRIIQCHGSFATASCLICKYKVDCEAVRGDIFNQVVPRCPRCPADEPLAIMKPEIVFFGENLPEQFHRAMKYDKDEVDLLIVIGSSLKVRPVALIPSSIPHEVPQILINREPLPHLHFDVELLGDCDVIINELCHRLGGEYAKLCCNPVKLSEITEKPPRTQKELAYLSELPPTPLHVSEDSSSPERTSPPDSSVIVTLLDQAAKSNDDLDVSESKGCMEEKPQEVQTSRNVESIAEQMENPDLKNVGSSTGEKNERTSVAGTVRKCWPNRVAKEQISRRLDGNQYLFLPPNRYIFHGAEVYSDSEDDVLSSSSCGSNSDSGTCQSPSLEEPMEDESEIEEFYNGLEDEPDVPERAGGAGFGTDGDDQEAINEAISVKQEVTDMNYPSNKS
Assay: Trp mass spectrometry assay (SIRT1 activation)
Type: biochemical
Settings: Trp peptide substrate; for Tryp AVG EC1.5 (μM): concentration of test compound that results in 150% activation of SIRT1; for Emax: percent maximum fold activation of SIRT1, read-out: Tryp % Fold Act
In short: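 N-His-tagged SIRT1 (10 nM), expressed in E. coli, was incubated with 0.5 μM Ac-RHKK(Ac)W-NH2 peptide and 120 μM NAD+ for 25 min at 25 °C in HEPES pH 7.5 with […]. The reaction was stopped with formic acid and O-acetyl-ADP-ribose or deacetylated peptide was quantified by mass spectrometry. Results are given as EC1.5 and percent maximal activation relative to DMSO control.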

`O=C(Nc1ccc(F)cn1)N1c2nc(N3CCCC(C(F)(F)F)C3)ccc2N2CCC[C@@H]1C2` (some centres unmarked) [Example 362] was tested, and the “Tryp AVG EC1.5 (μM)” value was “C (EC1.5>25 μM)” and the Emax was ≥ 150%.

For `O=C(Nc1cnccn1)N1c2nc(-c3cc(C(F)(F)F)cc(C(F)(F)F)c3)ccc2C2CC[C@H]1C2` [Example 363], the “Tryp AVG EC1.5 (μM)” value was “B (EC1.5 1-25 μM)” and the Emax was ≥ 150%.

With `O=C(Nc1cnccn1)N1c2nc(-c3cc(Cl)cc(Cl)c3)ccc2N2CC[C@H]1C2` [Example 364] the “Tryp AVG EC1.5 (μM)” value was “B (EC1.5 1-25 μM)” and the Emax was ≥ 150%.

For `O=C(Nc1cccc(-c2cnco2)c1)N1c2nc(-c3cccc(Cl)c3)ccc2N2CC[C@H]1C2` [Example 365], the “Tryp AVG EC1.5 (μM)” value was “A (EC1.5<1 μM)” and the Emax was ≥ 150%.

With `COc1cncc(NC(=O)N2c3nc(-c4cccc(N5CCCC5)c4)ccc3N3CC[C@H]2C3)n1` [Example 366] the “Tryp AVG EC1.5 (μM)” value was “A (EC1.5<1 μM)” and the Emax was ≥ 150%.

For `O=C(Nc1ccccn1)N1c2nc(-c3ccnc(N4CCC(C(F)(F)F)C4)c3)ccc2N2CC[C@H]1C2` (some centres unmarked) [Example 367], the “Tryp AVG EC1.5 (μM)” value was “A (EC1.5<1 μM)” and the Emax was ≥ 150%.

With `COc1cc(NC(=O)N2c3nc(-c4ccnc(N5CCC(C(F)(F)F)C5)c4)ccc3N3CC[C@H]2C3)ncn1` (some centres unmarked) [Example 368] the “Tryp AVG EC1.5 (μM)” value was “B (EC1.5 1-25 μM)” and the Emax was ≥ 150%.

For `O=C(Nc1ccccn1)N1c2nc(-c3cncc(C(F)(F)F)c3)ccc2N2CCC[C@H]1C2` [Example 369], the “Tryp AVG EC1.5 (μM)” value was “A (EC1.5<1 μM)” and the Emax was ≥ 150%.

In the case of `Cc1n[nH]cc1-c1ccc2c(n1)N(C(=O)Nc1ccccn1)[C@H]1CCN2C1` [Example 370], the “Tryp AVG EC1.5 (μM)” value is reported as “B (EC1.5 1-25 μM)” and the Emax is reported as ≥ 150%.

With `NC(=O)c1cncc(-c2ccc3c(n2)N(C(=O)Nc2ccccn2)[C@H]2CCN3C2)c1` [Example 371] the “Tryp AVG EC1.5 (μM)” value was “B (EC1.5 1-25 μM)” and the Emax was ≥ 150%.

`O=C(Nc1ccccn1)N1c2nc(-c3ccc4nonc4c3)ccc2N2CC[C@H]1C2` [Example 372] was tested, and the “Tryp AVG EC1.5 (μM)” value was “B (EC1.5 1-25 μM)” and the Emax was ≥ 150%.

For `N#Cc1cncc(-c2ccc3c(n2)N(C(=O)Nc2ccccn2)[C@H]2CCN3C2)c1` [Example 373], the “Tryp AVG EC1.5 (μM)” value was “A (EC1.5<1 μM)” and the Emax was ≥ 150%.

With `O=C(Nc1ccccn1)N1c2nc(-c3cncc(F)c3)ccc2N2CC[C@H]1C2` [Example 374] the “Tryp AVG EC1.5 (μM)” value was “B (EC1.5 1-25 μM)” and the Emax was ≥ 150%.

`CS(=O)(=O)c1cncc(-c2ccc3c(n2)N(C(=O)Nc2ccccn2)[C@H]2CCCN3C2)c1` [Example 375] was tested, and the “Tryp AVG EC1.5 (μM)” value was “A (EC1.5<1 μM)” and the Emax was ≥ 150%.

With `CS(=O)(=O)c1cncc(-c2ccc3c(n2)N(C(=O)Nc2cccnc2)[C@H]2CCCN3C2)c1` [Example 376] the “Tryp AVG EC1.5 (μM)” value was “A (EC1.5<1 μM)” and the Emax was ≥ 150%.

`CS(=O)(=O)c1cncc(-c2ccc3c(n2)N(C(=O)Nc2cncc(F)c2)[C@H]2CCCN3C2)c1` [Example 377] was tested, and the “Tryp AVG EC1.5 (μM)” value was “A (EC1.5<1 μM)” and the Emax was ≥ 150%.

`CS(=O)(=O)c1cncc(-c2ccc3c(n2)N(C(=O)Nc2cnccn2)[C@H]2CCCN3C2)c1` [Example 378] was tested, and the “Tryp AVG EC1.5 (μM)” value was “A (EC1.5<1 μM)” and the Emax was ≥ 150%.

For `CS(=O)(=O)c1cncc(-c2ccc3c(n2)N(C(=O)Nc2ccncn2)[C@H]2CCCN3C2)c1` [Example 379], the “Tryp AVG EC1.5 (μM)” value was “A (EC1.5<1 μM)” and the Emax was ≥ 150%.

In the case of `CS(=O)(=O)c1cncc(-c2ccc3c(n2)N(C(=O)Nc2cccnn2)[C@H]2CCCN3C2)c1` [Example 380], the “Tryp AVG EC1.5 (μM)” value is reported as “A (EC1.5<1 μM)” and the Emax is reported as ≥ 150%.

For `N#Cc1cccc(-c2ccc3c(n2)N(C(=O)Nc2cccnn2)[C@H]2CCCN3C2)c1` [Example 381], the “Tryp AVG EC1.5 (μM)” value was “B (EC1.5 1-25 μM)” and the Emax was ≥ 150%.

With `CC(C)(C)OC(=O)N1CCCN(c2ccc3c(n2)N(C(=O)Nc2ccncn2)[C@H]2CCCN3C2)CC1` [Example 382] the “Tryp AVG EC1.5 (μM)” value was “C (EC1.5>25 μM)” and the Emax was < 150%.

For `Cc1nc(NC(=O)N2c3nc(-c4cccc(N(C)C)c4)ccc3N3CCC[C@H]2C3)sc1C` [Example 383], the “Tryp AVG EC1.5 (μM)” value was “A (EC1.5<1 μM)” and the Emax was ≥ 150%.

For `CN(C)c1cccc(-c2ccc3c(n2)N(C(=O)Nc2ccc(F)cn2)[C@H]2CCCN3C2)c1` [Example 384], the “Tryp AVG EC1.5 (μM)” value was “B (EC1.5 1-25 μM)” and the Emax was ≥ 150%.

In the case of `COc1cc(NC(=O)N2c3nc(-c4cccc(N(C)C)c4)ccc3N3CCC[C@H]2C3)ncn1` [Example 385], the “Tryp AVG EC1.5 (μM)” value is reported as “A (EC1.5<1 μM)” and the Emax is reported as ≥ 150%.

For `CN(C)c1cccc(-c2ccc3c(n2)N(C(=O)Nc2ccccn2)[C@H]2CCCN3C2)c1` [Example 386], the “Tryp AVG EC1.5 (μM)” value was “B (EC1.5 1-25 μM)” and the Emax was ≥ 150%.

For `O=C(Nc1ccccn1)N1c2nc(-c3cccc(Cl)c3)ccc2N2CCC[C@H]1C2` [Example 387], the “Tryp AVG EC1.5 (μM)” value was “A (EC1.5<1 μM)” and the Emax was ≥ 150%.

For `O=C(Nc1ccccn1)N1c2nc(-c3ccnc(N4CCC(F)(F)C4)c3)ccc2N2CC[C@H]1C2` [Example 388], the “Tryp AVG EC1.5 (μM)” value was “A (EC1.5<1 μM)” and the Emax was ≥ 150%.

With `O=C(Nc1cnccn1)N1c2nc(-c3ccnc(N4CCC(C(F)(F)F)C4)c3)ccc2N2CC[C@H]1C2` (some centres unmarked) [Example 389] the “Tryp AVG EC1.5 (μM)” value was “A (EC1.5<1 μM)” and the Emax was ≥ 150%.

With `COc1cc(NC(=O)N2c3nc(-c4ccnc(N5CCC(F)(F)C5)c4)ccc3N3CC[C@H]2C3)ncn1` [Example 390] the “Tryp AVG EC1.5 (μM)” value was “B (EC1.5 1-25 μM)” and the Emax was ≥ 150%.

In the case of `O=C(Nc1ccc(F)cn1)N1c2nc(-c3ccnc(N4CCC(C(F)(F)F)C4)c3)ccc2N2CC[C@H]1C2` (some centres unmarked) [Example 391], the “Tryp AVG EC1.5 (μM)” value is reported as “A (EC1.5<1 μM)” and the Emax is reported as ≥ 150%.

`O=C(Nc1cccnc1)N1c2nc(-c3cncc(C(F)(F)F)c3)ccc2N2CCC[C@H]1C2` [Example 392] was tested, and the “Tryp AVG EC1.5 (μM)” value was “A (EC1.5<1 μM)” and the Emax was ≥ 150%.

`O=C(Nc1ccncn1)N1c2nc(-c3cncc(C(F)(F)F)c3)ccc2N2CCC[C@H]1C2` [Example 393] was tested, and the “Tryp AVG EC1.5 (μM)” value was “A (EC1.5<1 μM)” and the Emax was ≥ 150%.

`COc1cc(NC(=O)N2c3nc(-c4cncc(C(F)(F)F)c4)ccc3N3CCC[C@H]2C3)ncn1` [Example 394] was tested, and the “Tryp AVG EC1.5 (μM)” value was “A (EC1.5<1 μM)” and the Emax was ≥ 150%.

With `Cn1cc(-c2ccc3c(n2)N(C(=O)Nc2cccnc2)[C@H]2CCN3C2)cn1` [Example 395] the “Tryp AVG EC1.5 (μM)” value was “B (EC1.5 1-25 μM)” and the Emax was ≥ 150%.

In the case of `COc1cc(-c2cccc(Cl)c2)nc2c1N1CC[C@@H](C1)N2C(=O)Nc1cnccn1` [Example 396], the “Tryp AVG EC1.5 (μM)” value is reported as “A (EC1.5<1 μM)” and the Emax is reported as ≥ 150%.

`O=C(Nc1cnccn1)N1c2nc(-c3cc(F)cc(F)c3)ccc2N2CC[C@H]1C2` [Example 397] was tested, and the “Tryp AVG EC1.5 (μM)” value was “C (EC1.5>25 μM)” and the Emax was ≥ 150%.

With `COc1ncc(-c2ccc3c(n2)N(C(=O)Nc2cnccn2)[C@H]2CCN3C2)c(OC)n1` [Example 398] the “Tryp AVG EC1.5 (μM)” value was “B (EC1.5 1-25 μM)” and the Emax was ≥ 150%.

In the case of `COc1ccc(-c2ccc3c(n2)N(C(=O)Nc2cnccn2)[C@H]2CCN3C2)cn1` [Example 399], the “Tryp AVG EC1.5 (μM)” value is reported as “B (EC1.5 1-25 μM)” and the Emax is reported as ≥ 150%.

For `O=C(Nc1cnccn1)N1c2nc(-c3cncc(F)c3)ccc2N2CC[C@H]1C2` [Example 400], the “Tryp AVG EC1.5 (μM)” value was “B (EC1.5 1-25 μM)” and the Emax was ≥ 150%.

`O=C(Nc1ccc(F)cn1)N1c2nc(-c3cncc(Cl)c3)ccc2N2CCC[C@H]1C2` [Example 401] was tested, and the “Tryp AVG EC1.5 (μM)” value was “A (EC1.5<1 μM)” and the Emax was ≥ 150%.

For `Cc1nc(NC(=O)N2c3nc(-c4cncc(Cl)c4)ccc3N3CCC[C@H]2C3)sc1C` [Example 402], the “Tryp AVG EC1.5 (μM)” value was “A (EC1.5<1 μM)” and the Emax was ≥ 150%.

In the case of `CN(C)c1cccc(-c2ccc3c(n2)N(C(=O)Nc2cnccn2)[C@H]2CCCN3C2)c1` [Example 403], the “Tryp AVG EC1.5 (μM)” value is reported as “A (EC1.5<1 μM)” and the Emax is reported as ≥ 150%.

`COc1cc(NC(=O)N2c3nc(-c4cncc(F)c4)ccc3N3CCC[C@H]2C3)ncn1` [Example 404] was tested, and the “Tryp AVG EC1.5 (μM)” value was “A (EC1.5<1 μM)” and the Emax was ≥ 150%.

With `COc1cc(NC(=O)N2c3nc(-c4cncc(Cl)c4)ccc3N3CCC[C@H]2C3)ncn1` [Example 405] the “Tryp AVG EC1.5 (μM)” value was “A (EC1.5<1 μM)” and the Emax was ≥ 150%.

For `O=C(Nc1ccccn1)N1c2nc(-c3cncc(Cl)c3)ccc2N2CCC[C@H]1C2` [Example 406], the “Tryp AVG EC1.5 (μM)” value was “A (EC1.5<1 μM)” and the Emax was ≥ 150%.

For `O=C(Nc1cccnc1)N1c2nc(-c3cccc(Cl)c3)ccc2N2CCC[C@H]1C2` [Example 407], the “Tryp AVG EC1.5 (μM)” value was “A (EC1.5<1 μM)” and the Emax was ≥ 150%.

In the case of `COc1cc(NC(=O)N2c3nc(-c4cccc(Cl)c4)ccc3N3CCC[C@H]2C3)ncn1` [Example 408], the “Tryp AVG EC1.5 (μM)” value is reported as “A (EC1.5<1 μM)” and the Emax is reported as ≥ 150%.

In the case of `O=C(Nc1ccncc1)N1c2nc(-c3cccc(Cl)c3)ccc2N2CCC[C@H]1C2` [Example 409], the “Tryp AVG EC1.5 (μM)” value is reported as “A (EC1.5<1 μM)” and the Emax is reported as ≥ 150%.

With `O=C(Nc1cncc(F)c1)N1c2nc(-c3ccnc(N4CCC(C(F)(F)F)C4)c3)ccc2N2CC[C@H]1C2` (some centres unmarked) [Example 410] the “Tryp AVG EC1.5 (μM)” value was “A (EC1.5<1 μM)” and the Emax was ≥ 150%.
